Measurements as given in ChEMBL document CHEMBL1201862, “PubChem BioAssay data set” (2004).
Several values for one entry are separate records, joined by “and”; a condition that tells them apart may be missing. Equal values may be shown once.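 How tested: cells in 96-well plates exposed to compound for 48 hours at five concentrations. Abbreviation: GI50, concentration required for 50% inhibition of growth.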 Activity calls are given as the source filed them. No stated cut-off is given here; in the data, active = GI50 up to about 1.1 µM and inactive = higher.

Experiments:
Experiment in all cases: growth of human tumour cells (NCI), 48 h
SF-539 = tested on: SF-539
UACC-62 = tested on: UACC-62
MCF7 = tested on: MCF7
SNB-19 = tested on: SNB-19
MDA-MB-231 = tested on: MDA-MB-231
HL-60 = tested on: HL-60
NCI-H460 = tested on: NCI-H460
SK-MEL-2 = tested on: SK-MEL-2
MDA-MB-435 = tested on: MDA-MB-435
UO-31 = tested on: UO-31
SF-295 = tested on: SF-295
DU-145 = tested on: DU-145
A498 = tested on: A498
NCI/ADR-RES = tested on: NCI/ADR-RES
CAKI-1 = tested on: CAKI-1
CCRF-CEM = tested on: CCRF-CEM
RPMI-8226 = tested on: RPMI-8226
T47D = tested on: T47D
U-251 = tested on: U-251

Measured: GI50

O=C(CCC(NC(=O)OCc1ccccc1)C(=O)OCc1ccccc1)Nc1ccc(OCc2ccccc2)cc1 (stereo not given)
inactive: SF-539 > 31.6 µM | UACC-62 > 31.6 µM | MCF7 13 µM | SNB-19 21.7 µM | MDA-MB-231 15.3 µM | HL-60 > 31.6 µM | NCI-H460 15.6 µM | SK-MEL-2 > 10 µM | MDA-MB-435 17 µM | UO-31 > 10 µM | SF-295 > 31.6 µM | DU-145 > 31.6 µM | A498 > 10 µM | NCI/ADR-RES 17.5 µM | CAKI-1 > 31.6 µM | CCRF-CEM 21.8 µM | RPMI-8226 > 10 µM | T47D 18.8 µM | U-251 17.1 µM

Oc1ccc(C[C@@H]2CN[C@H](Cc3ccc(O)c(Br)c3)CN2)cc1
inactive: SF-539 > 100 µM | UACC-62 > 100 µM | MCF7 > 100 µM | MDA-MB-231 > 100 µM | HL-60 > 100 µM | SK-MEL-2 > 100 µM | MDA-MB-435 > 100 µM | UO-31 > 100 µM | SF-295 > 100 µM | DU-145 > 100 µM | A498 > 100 µM | NCI/ADR-RES > 100 µM | CAKI-1 > 100 µM | CCRF-CEM > 100 µM | T47D > 100 µM | U-251 > 100 µM

Oc1ccc(Br)cc1/C=N/c1c(NC2CCCCC2)oc2ccc(Br)cc12
inactive: SF-539 61.2 µM | UACC-62 38.6 µM | MCF7 16.2 µM | SNB-19 > 100 µM | MDA-MB-231 61.5 µM | HL-60 5.53 µM | NCI-H460 50.5 µM | MDA-MB-435 35.5 µM | UO-31 31 µM | SF-295 47.4 µM | DU-145 60.3 µM | A498 35.3 µM | NCI/ADR-RES 45.5 µM | CAKI-1 36.8 µM | CCRF-CEM 4.1 µM | RPMI-8226 7.18 µM | T47D 8.34 µM | U-251 34.9 µM

CC(N1CCOCC1)C(O)(c1ccccc1)c1ccccn1 (stereo not given)
inactive: SF-539 > 100 µM | UACC-62 37.8 µM | MCF7 41 µM | SNB-19 > 100 µM | MDA-MB-231 > 100 µM | HL-60 44.9 µM | NCI-H460 > 100 µM | SK-MEL-2 > 100 µM | MDA-MB-435 > 100 µM | UO-31 > 100 µM | SF-295 > 100 µM | DU-145 > 100 µM | A498 38.8 µM | NCI/ADR-RES > 100 µM | CAKI-1 > 100 µM | RPMI-8226 > 100 µM | T47D > 100 µM | U-251 > 100 µM

Cc1cc(-c2cc(C)c(O)c(C(C)(C)C)c2)cc(C(C)(C)C)c1O
inactive: SF-539 15 µM and 18.5 µM | UACC-62 13.3 µM and 13.6 µM | MCF7 5.02 µM and 6.62 µM | SNB-19 14.6 µM and 13.7 µM | MDA-MB-231 9.55 µM and 12.9 µM | HL-60 12 µM | NCI-H460 6.68 µM and 5.46 µM | SK-MEL-2 6.31 µM and 12.2 µM | MDA-MB-435 11.5 µM and 14.8 µM | UO-31 11 µM and 18.1 µM | SF-295 9.82 µM and 11.1 µM | DU-145 15.2 µM and 11.8 µM | A498 9.4 µM and 17.1 µM | NCI/ADR-RES 11 µM and 14 µM | CAKI-1 14.6 µM and 9.66 µM | CCRF-CEM 5.69 µM and 5.58 µM | RPMI-8226 18.9 µM and 12.9 µM | T47D 4.53 µM and 7 µM | U-251 13.6 µM and 10.6 µM

COc1ccc(CC2c3cc(OC)c(OC)c(OC)c3CC[N+]2(C)C)cc1Oc1ccc(CC2c3cc4c(c(OC)c3CCN2C)OCO4)cc1 (stereo not given)
inactive: SF-539 > 100 µM | UACC-62 > 100 µM | MCF7 > 100 µM | SNB-19 > 100 µM | MDA-MB-231 > 100 µM | HL-60 35.5 µM | NCI-H460 92 µM | SK-MEL-2 > 100 µM | MDA-MB-435 > 100 µM | UO-31 > 100 µM | SF-295 > 100 µM | DU-145 > 100 µM | A498 > 100 µM | NCI/ADR-RES > 100 µM | CAKI-1 > 100 µM | T47D > 100 µM | U-251 > 100 µM

O=C1CC(n2cccc2)c2c(Br)sc(Br)c21 (stereo not given)
inactive: SF-539 17.6 µM | UACC-62 15.9 µM | MCF7 12 µM | SNB-19 14.9 µM | MDA-MB-231 15.7 µM | HL-60 15.1 µM | NCI-H460 18 µM | SK-MEL-2 14.5 µM | MDA-MB-435 14.4 µM | UO-31 2.56 µM | SF-295 23.3 µM | DU-145 16.6 µM | A498 24.9 µM | NCI/ADR-RES 26.1 µM | CAKI-1 6.49 µM | CCRF-CEM 6.35 µM | RPMI-8226 8.24 µM | T47D 18.1 µM | U-251 15.2 µM

CC(C)COC(=O)OC(=O)c1ccc(N(C)Cc2cnc3nc(N)nc(N)c3n2)cc1
inactive: SF-539 10.8 µM | UACC-62 6.53 µM | MCF7 6.35 µM | SNB-19 16.1 µM | MDA-MB-231 > 100 µM | HL-60 8.34 µM | NCI-H460 5.64 µM | SK-MEL-2 > 100 µM | MDA-MB-435 > 100 µM | UO-31 > 51.3 µM | SF-295 15.7 µM | DU-145 53.7 µM | A498 > 40.4 µM | NCI/ADR-RES > 36.3 µM | CAKI-1 > 32.1 µM | CCRF-CEM 3.69 µM | RPMI-8226 > 80.9 µM | T47D > 100 µM | U-251 > 29.7 µM

NC1c2c(Cl)sc(Cl)c2C(=O)C1O (stereo not given)
inactive: SF-539 76.2 µM | UACC-62 17.7 µM | MCF7 18.9 µM | SNB-19 41.3 µM | MDA-MB-231 37.8 µM | HL-60 15.4 µM | NCI-H460 46 µM | SK-MEL-2 73.8 µM | MDA-MB-435 42.2 µM | UO-31 31.9 µM | SF-295 32.6 µM | DU-145 > 100 µM | A498 > 100 µM | NCI/ADR-RES 36.9 µM | CAKI-1 24.4 µM | CCRF-CEM 19 µM | T47D > 100 µM | U-251 21.2 µM

CC1(CCC(=O)OC2CCCCC2)OCCO1
inactive: SF-539 > 100 µM | UACC-62 > 100 µM | MCF7 > 100 µM | SNB-19 > 100 µM | MDA-MB-231 > 100 µM | HL-60 > 100 µM | NCI-H460 > 100 µM | SK-MEL-2 > 100 µM | MDA-MB-435 > 100 µM | UO-31 > 100 µM | SF-295 > 100 µM | DU-145 > 100 µM | A498 > 100 µM | NCI/ADR-RES > 100 µM | CAKI-1 > 100 µM | CCRF-CEM > 100 µM | RPMI-8226 > 100 µM | T47D > 100 µM | U-251 > 100 µM

CN1CSC(=S)N(c2c3ccccc3nc3ccc(Br)cc23)C1
inactive: SF-539 11.6 µM | UACC-62 14 µM | MCF7 5.83 µM | SNB-19 12.5 µM | MDA-MB-231 8.45 µM | HL-60 11.1 µM | NCI-H460 3.83 µM | SK-MEL-2 13 µM | MDA-MB-435 8.67 µM | UO-31 9.06 µM | SF-295 6.7 µM | DU-145 8.09 µM | A498 13.6 µM | NCI/ADR-RES 7.67 µM | CAKI-1 5.41 µM | CCRF-CEM 4.08 µM | RPMI-8226 7.71 µM | T47D 11.6 µM | U-251 7.13 µM

[N-]=[N+]=NC1=C(c2ccccn2)C(=O)c2cccc3cccc1c23
inactive: SF-539 32.8 µM | UACC-62 20 µM | MCF7 23.6 µM | SNB-19 28.6 µM | MDA-MB-231 69.3 µM | HL-60 20.7 µM | NCI-H460 12 µM | SK-MEL-2 43.5 µM | MDA-MB-435 36.5 µM | UO-31 7.48 µM | SF-295 42.5 µM | DU-145 39.7 µM | A498 5.48 µM | NCI/ADR-RES 50.8 µM | CAKI-1 26.7 µM | CCRF-CEM 7.03 µM | RPMI-8226 34 µM | T47D > 100 µM | U-251 29.2 µM

Nc1ncc(Br)c(NCC2(CO)CCC2)n1
inactive: SF-539 > 100 µM | UACC-62 > 100 µM | MCF7 > 100 µM | MDA-MB-231 > 100 µM | HL-60 > 100 µM | NCI-H460 71.9 µM | SK-MEL-2 > 100 µM | MDA-MB-435 > 100 µM | UO-31 79.6 µM | SF-295 97.1 µM | DU-145 81.3 µM | A498 35.6 µM | NCI/ADR-RES 95.5 µM | CAKI-1 49.8 µM | CCRF-CEM > 100 µM | RPMI-8226 42.8 µM | T47D 1.69 µM | U-251 > 100 µM

CC(=O)/C(=C\n1c(=S)[nH]c2ccc([N+](=O)[O-])cc21)C(=O)Nc1ccccc1C
inactive: SF-539 8.26 µM | UACC-62 > 100 µM | MCF7 > 100 µM | MDA-MB-231 > 100 µM | HL-60 > 100 µM | NCI-H460 > 100 µM | SK-MEL-2 > 100 µM | MDA-MB-435 > 100 µM | SF-295 > 100 µM | DU-145 > 100 µM | A498 96.8 µM | NCI/ADR-RES > 100 µM | CAKI-1 > 100 µM | CCRF-CEM > 100 µM | RPMI-8226 > 100 µM | T47D > 100 µM | U-251 > 100 µM
